# Measurements taken from patent publication US5187156A, “Peptide compounds, processes for preparation thereof and pharmaceutical composition comprising the same” (priority 1988, dated 1993).
# Non-standard residues stand in square brackets, D forms with d. Residues, ends and D or L forms follow the SMILES beside them. *: point of attachment. Boc = CC(C)(C)OC(=O)*; OBn = c1ccc(CO*)cc1; For = O=C*
# Target: T1, Substance P receptor (Cavia porcellus, UniProt P30547)
# T1 construct: from tissue; host or cells: guinea pig (male Hartley) trachea and lung, crude membrane fraction
# Experiment: 3H-Substance P receptor binding to guinea pig crude lung membrane preparation
# Conditions: test compound 1 μg/ml; 3H-substance P 1 nM; guinea pig crude lung membrane fraction; 4° C., 30 minutes
# Procedure: 1. ^3 H-Substance P receptor binding
# (a) Crude lung membrane preparation
# Male Hartley strain guinea pigs were sacrificed by decapitation. The trachea and lung were removed and homogenized in buffer (0.25M sucrose, 50 mM Tris-HCl pH 7.5, 0.1 mM EDTA) by using Polytoron (Kinematica). The homogenate was centrifuged (1000 xg, 10 min) to remove tissue clumps and the supernatant was centrifuges (14000 xg 20 min) to yield pellets. The pellets were resuspended in buffer (5 mM Tris-HCl pH 7.5), homogenized with a teflon homogenizer and centrifuged (14000 xg, 20 min) to yield pellets which were referred to as crude membrane fractions. The obtained pellets were stored at -70° C. until use.
# (b) ^3 H-Substance P binding to preparative membrane
# Frozen crude membrane fractions were thawed and resuspended in Medium 1 (50 mM Tris-HCl pH 7.5, 5 mM MnCl2, 0.02% BSA, 2 μg/ml chymostatin, 4 μg/ml leupeptin, 40 μg/ml bacitracin.) ^3 H-substance P (1 nM) was incubated with 100 μl of the membrane preparation in Medium 1 at 4° C. for 30 minutes in a final volume of 500 µl. At the end of the incubation period, reaction mixture was quickly filtered over a Whatman GF/B glass filter (pretreated with 0.1% polyethylene imine for 3 hours prior to use) under aspiration. The filters were then washed four times with 5 ml of the buffer (50 mM Tris-HCl, pH 7.5). The radioactivity was counted in 5 ml of Aquazol-2 in Packerd scintillation counter (Packerd TRI-CARB 4530).
# T1 sequence (P30547 whole entry): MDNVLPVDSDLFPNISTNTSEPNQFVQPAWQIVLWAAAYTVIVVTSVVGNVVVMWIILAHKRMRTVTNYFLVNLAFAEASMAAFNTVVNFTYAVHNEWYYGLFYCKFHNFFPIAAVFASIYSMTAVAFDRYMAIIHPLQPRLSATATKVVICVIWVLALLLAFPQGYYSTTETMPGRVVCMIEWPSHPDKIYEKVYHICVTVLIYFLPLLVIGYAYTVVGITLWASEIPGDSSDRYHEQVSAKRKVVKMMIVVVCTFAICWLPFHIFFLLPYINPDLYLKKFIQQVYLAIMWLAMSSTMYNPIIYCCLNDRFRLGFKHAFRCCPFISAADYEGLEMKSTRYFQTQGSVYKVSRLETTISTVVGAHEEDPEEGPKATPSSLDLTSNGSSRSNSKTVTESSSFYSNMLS
inhibition at 1 µg/mL [%],Inhibition (%),Compound
100,–,"CC(C)(C)OC(=O)N[C@@H](CCC(N)=O)C(=O)N[C@H](Cc1cn(C=O)c2ccccc12)C(=O)N[C@@H](Cc1ccccc1)C(=O)OCc1ccccc1 [Test Compound (a), Boc-Gln-D-Trp(CHO)-Phe-OBzl] (Boc-Gln-[dW](For)-Phe-OBn)"
100,–,"CC(=O)N[C@@H](CCC(N)=O)C(=O)N[C@H](Cc1cn(C=O)c2ccccc12)C(=O)N[C@@H](Cc1ccccc1)C(=O)OCc1ccccc1 [Test Compound (b), Ac-Gln-D-Trp(CHO)-Phe-OBzl] (Ac-Gln-[dW](For)-Phe-OBn)"
99,–,"CC(C)(C)OC(=O)N[C@@H](CC(N)=O)C(=O)N[C@H](Cc1cn(C=O)c2ccccc12)C(=O)N[C@@H](Cc1ccccc1)C(=O)OCc1ccccc1 [Test Compound (d), Boc-Asn-D-Trp(CHO)-Phe-OBzl] (Boc-Asn-[dW](For)-Phe-OBn)"
99,–,"CC(C)(C)OC(=O)N[C@@H](CO)C(=O)N[C@H](Cc1cn(C=O)c2ccccc12)C(=O)N[C@@H](Cc1ccccc1)C(=O)OCc1ccccc1 [Test Compound (e), Boc-Ser-D-Trp(CHO)-Phe-OBzl] (Boc-Ser-[dW](For)-Phe-OBn)"
100,–,"CN(C)C(=O)CC[C@H](NC(=O)OC(C)(C)C)C(=O)N[C@H](Cc1cn(C=O)c2ccccc12)C(=O)N[C@@H](Cc1ccccc1)C(=O)OCc1ccccc1 [Test Compound (f), Boc-Glu(NMe2)-D-Trp(CHO)-Phe-OBzl] (Boc-Glu(NMe2)-[dW](For)-Phe-OBn)"
100,–,"C[C@@H](O)[C@H](NC(=O)OC(C)(C)C)C(=O)N[C@H](Cc1cn(C=O)c2ccccc12)C(=O)N[C@@H](Cc1ccccc1)C(=O)OCc1ccccc1 [Test Compound (g), Boc-Thr-D-Trp(CHO)-Phe-OBzl] (Boc-Thr-[dW](For)-Phe-OBn)"
–,93,Z-Gln-D-Trp(CHO) -Phe-OBzl [Test Compound (c)]

Compound,inhibition at 1 µg/mL [%],Inhibition (%)
"CN(Cc1ccccc1)C(=O)[C@H](Cc1ccccc1)NC(=O)[C@@H](Cc1cn(C=O)c2ccccc12)NC(=O)[C@H](CCC(N)=O)NC(=O)OC(C)(C)C [Test Compound (h), Boc-Gln-D-Trp(CHO)-Phe-NMeBzl]",100,–
"C[C@@H](O)[C@H](NC(=O)OC(C)(C)C)C(=O)N[C@H](Cc1cn(C=O)c2ccccc12)C(=O)N[C@@H](Cc1ccccc1)C(=O)N(C)Cc1ccccc1 [Test Compound (i), Boc-Thr-D-Trp(CHO)-Phe-NMeBzl]",100,–
"CN(C)C(=O)CC[C@H](NC(=O)OC(C)(C)C)C(=O)N[C@H](Cc1cn(C=O)c2ccccc12)C(=O)N[C@@H](Cc1ccccc1)C(=O)N(C)Cc1ccccc1 [Test Compound (j), Boc-Glu(NMe2)-D-Trp(CHO)-Phe-NMeBzl]",100,–
"CC(=O)N[C@H](C(=O)N[C@H](Cc1cn(C=O)c2ccccc12)C(=O)N[C@@H](Cc1ccccc1)C(=O)N(C)Cc1ccccc1)[C@@H](C)O [Test Compound (k), Ac-Thr-D-Trp(CHO)-Phe-NMeBzl]",100,–
"CC(=O)N[C@@H](CCC(=O)N(C)C)C(=O)N[C@H](Cc1cn(C=O)c2ccccc12)C(=O)N[C@@H](Cc1ccccc1)C(=O)N(C)Cc1ccccc1 [Test Compound (l), Ac-Glu(NMe2)-D-Trp(CHO)-Phe-NMeBzl]",100,–
